The record followed here is patent publication EP4180035A1, “NOVEL BETA-LACTONE INHIBITORS OF HYDROLYTIC ENZYMES AND THEIR MEDICAL AND NON MEDICAL USES” (Max-Planck-Gesellschaft zur Förderung der Wissenschaften …, priority 2021, dated 2023).

Assay type in all cases: biochemical
For assay [1], the target named is T1, β1 subunit of the yeast 20S proteasome (Saccharomyces cerevisiae, UniProt P38624).
T1 construct: purified yeast 20S proteasome core particle (yCP); host or cells: yeast
The assay can be described thus: IC50 determination with purified yeast 20S proteasome core particle (yCP), caspase-like activity, fluorogenic AMC substrate. To be noted: yCP 0.05 mg/mL, 100 mM Tris-HCl pH 7.5; 45 min incubation at room temperature; fluorogenic substrate 200 µM, caspase-like (C-L); read-out: binding affinities for β1. As to the method:
(§1) The concentration of purified yCP was determined spectrophotometrically at 280 nm. yCP (final concentration: 0.05 mg/mL in 100 mM Tris-HCI, pH 7.5) was mixed with DMSO as a control or serial dilutions of the compound 1 in DMSO, thereby not surpassing a final concentration of 10% (v/v) DMSO. After an incubation time of 45 min at room temperature, fluorogenic substrates Boc-Leu-Arg-Arg-AMC, Z-Leu-Leu-Glu-AMC, and Suc-Leu-Leu-Val-Tyr-AMC (final concentration of 200 µM) were added to measure the residual activity of […], and chymotrypsin-like (ChT-L, β5 subunit), respectively. The assay mixture was incubated for another 60 min at RT and afterward diluted 1:10 in 20 mM Tris-HCI, pH 7.5. The AMC-molecules released by hydrolysis were measured in triplicate with a Varian Cary Eclipse Fluorescence Spectrophotometer (Agilent Technologies) at λexc = 360 nm and λem = 460 nm. Relative fluorescence units were normalized to the DMSO treated control. The calculated residual activities were plotted against the logarithm of the applied inhibitor concentration and fitted with GraphPad Prism 9. Half maximum inhibitory concentration (IC50) values were deduced from the fitted data.

The target of assay [2] is T2, β2 subunit of the yeast 20S proteasome (Saccharomyces cerevisiae, UniProt P25043).
T2 construct: purified yeast 20S proteasome core particle (yCP); host or cells: yeast
The assay is described as follows: IC50 determination with purified yeast 20S proteasome core particle (yCP), trypsin-like activity, fluorogenic AMC substrate. Conditions: yCP 0.05 mg/mL, 100 mM Tris-HCl pH 7.5; 45 min incubation at room temperature; fluorogenic substrate 200 µM, trypsin-like (T-L); read-out: binding affinities for β2. As for the experimental part:
as §1

The target of assay [3] is T3, β5 subunit of the yeast 20S proteasome (Saccharomyces cerevisiae, UniProt P30656).
T3 construct: purified yeast 20S proteasome core particle (yCP); host or cells: yeast
The assay can be described thus: IC50 determination with purified yeast 20S proteasome core particle (yCP), chymotrypsin-like activity, fluorogenic AMC substrate. Conditions: yCP 0.05 mg/mL, 100 mM Tris-HCl pH 7.5; 45 min incubation at room temperature; Suc-Leu-Leu-Val-Tyr-AMC 200 µM (ChT-L); triplicate. As to the method: as §1

`CC(C)C1C(=O)OC1C(=O)O` (stereo not drawn) [Compound 1, 3-isopropyl-4-oxo-2-oxetanecarboxylic acid]: the IC50 in assay [1] came to 625 µM; in assay [2], 60 µM; in assay [3], 6.2 µM.
